Measured values taken from patent US8138188B2, “Melanocortin type 4 receptor agonist piperidinoylpyrrolidines” (Pfizer Inc., priority 2006, dated 2012).

Key:
[1] = target: T1, MC4 receptor (MC4R) (Homo sapiens, UniProt P32245); experiment: Nle4, D-Phe7-α-MSH inhibition at the MC4 receptor (SPA competition binding vs [125I] Nle4, D-Phe7-α-MSH); conditions: vs 0.06 nM [125I] Nle4, D-Phe7-α-MSH, CHO-CRE MC4R cell membranes
T1 construct: expressed in transfected cells; host or cells: CHO-CRE MC4R cells (membranes)
T1 sequence (P32245 whole entry): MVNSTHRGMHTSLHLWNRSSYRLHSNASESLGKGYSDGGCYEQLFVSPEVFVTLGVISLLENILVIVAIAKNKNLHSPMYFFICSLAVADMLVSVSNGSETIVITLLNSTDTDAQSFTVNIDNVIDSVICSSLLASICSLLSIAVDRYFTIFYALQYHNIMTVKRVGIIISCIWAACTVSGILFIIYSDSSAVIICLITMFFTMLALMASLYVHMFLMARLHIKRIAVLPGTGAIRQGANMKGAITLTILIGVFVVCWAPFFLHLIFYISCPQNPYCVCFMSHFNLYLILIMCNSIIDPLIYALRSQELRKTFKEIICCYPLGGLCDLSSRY
Excerpt: Nle4, D-Phe7-α-MSH Inhibition at the MC4 Receptor
(§1) Nle4, Nle4, D-Phe7-α-MSH is a stable analogue of melanocyte-stimulating hormone (MSH), which is an agonist at the MC4 receptor (MC4R). Compounds can be evaluated for their ability to inhibit Nle4, Nle4, D-Phe7-α-MSH binding to membranes from cells expressing the MC4R using a competition binding assay versus [^125I] Nle4, D-Phe7-α-MSH.
Cells expressing the MC4R were subject to homogenisation and the membrane fragment isolated by differential centrifugation. CHO-CRE MC4R cell membranes were coupled to PVT-PEI-WGA SPA Beads type A for 2 hours, spun at 1000 RPM for 5 mins and suspended to a concentration of 300 ug bead/ml (0.15 ug membrane, 15 ug bead per well). Bead/membrane mix was incubated with 0.06 nM [^125I] Nle4, D-Phe7-α-MSH and 11 half-log concentrations of competitor ligand, in duplicate, in a total volume of 50 μl buffer per well (25 mM HEPES, 1 mM MgCl2, 2.5 mM CaCl2, 1% Pluronic F68, 1 complete EDTA protease inhibitor tablet/50 ml pH7). Non-specific binding was determined by the inclusion of 100 nM SHU9119. The reaction was initiated by the addition of bead/membranes and plates were incubated at room temperature for 12 hours (the first hour on a plate shaker), after which the amount of radioactivity present was determined using a Wallac plate counter. Ki values were determined by data analysis using appropriate software.

[2] = target: T2, MC3 receptor (MC3R) (Homo sapiens, UniProt P41968); experiment: Nle4, D-Phe7-α-MSH inhibition at the MC3 receptor (SPA competition binding); conditions: vs 0.06 nM Nle4, D-Phe7-α-MSH, CHO-CRE MC3R cell membranes
T2 construct: expressed in transfected cells; host or cells: CHO-CRE MC3R cells (membranes)
T2 sequence (P41968 whole entry): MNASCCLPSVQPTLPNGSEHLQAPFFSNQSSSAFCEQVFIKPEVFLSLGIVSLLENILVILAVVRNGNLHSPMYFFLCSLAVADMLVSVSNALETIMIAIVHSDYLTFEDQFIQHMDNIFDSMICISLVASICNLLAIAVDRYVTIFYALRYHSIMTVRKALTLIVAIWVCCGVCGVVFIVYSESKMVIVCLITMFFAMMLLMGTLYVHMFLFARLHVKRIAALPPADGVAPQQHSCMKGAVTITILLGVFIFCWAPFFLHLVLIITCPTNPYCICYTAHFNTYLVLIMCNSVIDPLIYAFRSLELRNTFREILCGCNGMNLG
Excerpt: Nle4, D-Phe7-α-MSH Inhibition at the MC3 Receptor
as §1, with “Nle4,” for “Nle4, Nle4,”, “MC3” for “MC4”, “(MC3R).” for “(MC4R).”, “MC3R” for “MC4R”
Cells expressing the MC3R were subject to homogenisation and the membrane fragment isolated by differential centrifugation. CHO-CRE MC3R cell membranes were coupled to PVT-PEI-WGA SPA Beads type A for 2 hours, spun at 1000 RPM for 5 mins and suspended to a final assay concentration of 800 ug bead/ml (1.2 ug membrane, 40 ug bead per well). Bead/membrane mix was incubated with 0.06 nM Nle4, D-Phe7-α-MSH and 11 half-log concentrations of competitor ligand, in duplicate, in a total volume of 50 μl buffer per well (25 mM HEPES, 1 mM MgCl2, 2.5 mM CaCl2, 1% Pluronic F68, 1 complete EDTA protease inhibitor tablet/50 ml pH7).
Non-specific binding was determined by the inclusion of 100 nM SHU9119. The reaction was initiated by the addition of bead/membranes and plates were incubated at room temperature for 12 hours (the first hour on a plate shaker), after which the amount of radioactivity present was determined using a Wallac plate counter. Ki values were determined by data analysis using appropriate software.

[3] = target: T1, MC4 receptor (MC4R); experiment: AGRP inhibition: competition binding vs [125I]AGRP(87-132) at CHO-CRE MC4R cell membranes; conditions: vs 0.3 nM [125I]AGRP(87-132)
Excerpt: Agouti related protein (AGRP) is a high affinity endogenous antagonist/inverse agonist for the MC4 receptor (Lu et al., 1994, Nature 371: 799-802; Oilman et al., 1997, Science 278: 135-138). […] It has been ascertained that this C-terminal fragment of AGRP contains the MC4R binding determinants (Yang et al., 1999, Mol Endocrinol 13: 148-155), therefore, compounds can be evaluated for their ability to inhibit AGRP binding to membranes from cells expressing the MC4R using a competition binding assay versus [^125I]AGRP(87-132). To this end cells expressing the MC4R were subject to homogenisation and the membrane fragment isolated by differential centrifugation. CHO-CRE MC4R cell membranes (12 μg protein) were incubated with 0.3 nM [^125I]AGRP(87-132) and 11 half-log concentrations of competitor ligand, in duplicate, in a total volume of 100 μl buffer (25 mM HEPES, 1 mM MgCl2, 2.5 mM CaCl2, 0.5% BSA pH 7.0). Non-specific binding was determined by the inclusion of 1 μM SHU9119. The reaction was initiated by the addition of membranes and plates were incubated at room temperature for 2 hours. The reaction was terminated by rapid filtration onto GF/C filters (presoaked in 1% PEI) using a vacuum harvester followed by five 200 μl washes of ice cold wash buffer (Binding buffer containing 500 mM NaCl). The filters were soaked in 50 μl scintillation fluid and the amount of radioactivity present was determined by liquid scintillation counting. Ki values were determined by data analysis using appropriate software.

| Ki [1] | Ki [2] | Ki [3] | Compound |
| --- | --- | --- | --- |
| 276 nM | 977 nM | 223 nM | C[C@@H]1CN(C(=O)[C@@H]2CN(c3ccc(=O)n(C)n3)C[C@H]2c2ccc(Cl)cn2)C[C@H](C)[C@@]1(O)c1ccc(Cl)cn1 [Example 10] |
| 85.4 nM | 568 nM | 79 nM | CC1CN(C(=O)C2CN(c3ccc(=O)n(C)n3)CC2c2ccc(Cl)cn2)CC(C)C1(O)c1ccc(F)c(F)c1 (stereo not drawn) [Example 19] |
| 251 nM | 1020 nM | 253 nM | COc1ccc(C2(O)C(C)CN(C(=O)C3CN(c4ccc(=O)n(C)n4)CC3c3ccc(Cl)cn3)CC2C)cc1 (stereo not drawn) [Example 20] |
| 65.7 nM | 264 nM | 79 nM | CC1CN(C(=O)C2CN(c3ccc(=O)n(C)n3)CC2c2ccc(Cl)cn2)CC(C)C1(O)c1ccc(Cl)cc1 (stereo not drawn) [Example 23] |

The remaining lines, values behind:

| Compound | Ki [1] | Ki [2] | Ki [3] |
| --- | --- | --- | --- |
| C[C@@H]1CN(C(=O)[C@@H]2CN(c3ccc(C#N)nn3)C[C@H]2c2ccc(Cl)cn2)C[C@H](C)[C@@]1(O)c1ccc(F)cc1 [Example 2, 6-[(3S,4S)-3-(5-Chloropyridin-2-yl)-4-{[(3R,4R,5S)-4-(4-fluorophenyl)-4-hydroxy-3,5-dimethylpiperidin-1-yl]carbonyl}pyrrolidin-1-yl]pyridazine-3-carbonitrile] | 27 nM | 124 nM | 59 nM |
| C[C@@H]1CN(C(=O)[C@@H]2CN(c3ccc(=O)n(C)n3)C[C@H]2c2ccc(Cl)cn2)C[C@H](C)[C@@]1(O)C1CCCCC1 [Example 17] | 112 nM | 332 nM | 20 nM |
| CC1CN(C(=O)C2CN(c3cncc(F)c3)CC2c2ccc(Cl)cn2)CC(C)C1(O)c1ccc(F)cc1 (stereo not drawn) [Example 25] | 10.9 nM | < 0.105 nM | 278 nM |
| C[C@@H]1CN(C(=O)[C@@H]2CN(c3ccc(C#N)nn3)C[C@H]2c2ccc(F)cn2)C[C@H](C)[C@@]1(O)c1ccc(Cl)cc1 [Example 32] | 150 nM | 456 nM | 160 nM |
